Laboratory results from article PMC8467567, “Selective Targeting of Human and Animal Pathogens of the Helicobacter Genus by Flavodoxin Inhibitors: Efficacy, Synergy, Resistance and Mechanistic Studies” (International Journal of Molecular Sciences, 2021).

How the values were obtained:
[1] = target: T1, Hp-Fld (H. pylori flavodoxin) (Helicobacter pylori, UniProt O25776); experiment: biochemical; set-up: isothermal titration calorimetry of compounds binding to recombinant wild-type Hp-Fld, pH 9
T1 construct: gene fldA; recombinant from pET28a-fldA in E. coli BL21 (DE3); DEAE purification, no tag mentioned; FMN added during lysis, transformed into holoprotein if needed
T1 sequence (O25776 1-164): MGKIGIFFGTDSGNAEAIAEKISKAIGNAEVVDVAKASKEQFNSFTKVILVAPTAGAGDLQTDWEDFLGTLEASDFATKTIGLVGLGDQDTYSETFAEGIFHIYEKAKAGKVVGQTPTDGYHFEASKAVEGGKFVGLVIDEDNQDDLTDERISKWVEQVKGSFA
Description: Isothermal titration calorimetry (ITC) experiments were carried out in an Auto-iTC200 calorimeter (MicroCal, Malvern-Panalytical, Malvern, UK) in order to characterise the affinity of the wild-type Hp-Fld protein and the different mutants N14A, A55W, V113W, Q115W, T116W, K133A and D142Y for the different compounds. Recombinant Hp-Fld at 10–20 µM concentration in 50 mM EPPS buffer, pH 9 (for IV, IV-a, IV-b, IV-c, rac-IV-j, rac-IV-k and rac-IV-l), or in 50 mM Tris-HCl buffer, pH 9 (for IV-d) was titrated with 120–300 µM ligand solutions in the same buffer, prepared from stock compound solutions in 100% DMSO. At the residual DMSO concentration of 2.5% employed in the working solutions, wild-type flavodoxin has been described to be conformationally stable and biochemically active. Thermodynamic parameters of the binding equilibrium were calculated by non-linear least-squares regression analysis considering a single ligand binding site and using the user-defined fitting routines in the MicroCal LLC ITC module from the Origin 7.0 software (Northampton, MA, USA). Interaction between wild-type Hp-Fld and compounds IV, IV-a, IV-b, IV-c, IV-d, rac-IV-j, rac-IV-k and rac-IV-l was evaluated by ITC (Figure S3 and Table S1).

[2] = target: T1, Hp-Fld (H. pylori flavodoxin); experiment: isothermal titration calorimetry; format: binding
[3] = target: T2, Hp-Fld (H. pylori flavodoxin) (Helicobacter pylori, UniProt O25776, V113W); experiment: biochemical
T2 construct: gene fldA
Source text: (§1) isothermal titration calorimetry on Hp-Fld (H. pylori flavodoxin)

[4] = target: T3, Hp-Fld (H. pylori flavodoxin) (Helicobacter pylori, UniProt O25776, D142Y); experiment: biochemical
T3 construct: gene fldA
Source text: as §1

[5] = target: T4, Hp-Fld (H. pylori flavodoxin) (Helicobacter pylori, UniProt O25776, N14A); experiment: biochemical
T4 construct: gene fldA
Source text: as §1

[6] = target: T5, Hp-Fld (H. pylori flavodoxin) (Helicobacter pylori, UniProt O25776, A55W); experiment: biochemical
T5 construct: gene fldA
Source text: as §1

[7] = target: T6, Hp-Fld (H. pylori flavodoxin) (Helicobacter pylori, UniProt O25776, T116W); experiment: biochemical
T6 construct: gene fldA
Source text: as §1

**Q.** For `O=[N+]([O-])c1ccc(SCc2ccc(OCC(O)CO)cc2)c2nonc12` (racemic) [rac-IV-j, rac-3-(4-(((7-Nitrobenzo[c][1,2,5]oxadiazol-4-yl)thio)methyl)phenoxy)propane-1,2-diol], which Kd [1] is on record?
**A.** 2330 nM

**Q.** How did the Kd [1] turn out when `Nc1ccc(SCc2ccc(OCC(O)CO)cc2)c2nonc12` (racemic) [rac-IV-k, rac-3-(4-(((7-Aminobenzo[c][1,2,5]oxadiazol-4-yl)thio)methyl)phenoxy)propane-1,2-diol] was run?
**A.** 3360 nM

**Q.** `Nc1ccc([S+]([O-])Cc2ccc(OCC(O)CO)cc2)c2nonc12` (racemic) [rac-IV-l, rac-3-(4-(((7-Aminobenzo[c][1,2,5]oxadiazol-4-yl)sulfinyl)methyl)phenoxy)propane-1,2-diol] was tested. Which Kd [1] did it give?
**A.** 1650 nM

**Q.** With `COc1ccc(CSc2ccc(N)c3nonc23)cc1` [IV-a] as the compound, how does the Kd [1] read?
**A.** 5260 nM

**Q.** How did the Kd [1] turn out when `COc1ccc(C2(C)SCc3cc(C)c(C)cc3CS2)cc1` [IV-b] was run?
**A.** 910 nM

**Q.** How did the Kd ([2]; read-out: IV-c / Kd^b) turn out when `COc1ccc(CSc2cc(Cl)c(N)c3nonc23)cc1` [IV-c] was run?
**A.** 670 nM

**Q.** What about the Kd [3] of the same compound?
**A.** 1450 nM

**Q.** And the Kd [4]?
**A.** 440 nM

**Q.** And the Kd [5]?
**A.** 1760 nM

**Q.** And the Kd [6]?
**A.** 1050 nM

**Q.** And the Kd [7]?
**A.** 1430 nM

**Q.** For `COc1ccc(C[S+]([O-])c2ccc(N)c3nonc23)cc1` (stereo not drawn) [IV-d], which Kd [1] is on record?
**A.** 1550 nM

**Q.** Which results are given for `COc1ccc(CSc2ccc([N+](=O)[O-])c3nonc23)cc1` [IV]?
**A.** Kd ([2]; read-out: IV / Kd^b): 480 nM; Kd [3]: 500 nM; Kd [4]: 1180 nM; Kd [5]: 450 nM; Kd [6]: 2330 nM; Kd [7]: 1100 nM
